Test results as given in patent publication US20190224243A1 (MUSC Foundation for Research Development, priority 2018, published 2019).
Ends that are not written are not given here.

Tests used:
animal model for ILD = details: cited from earlier work
SSc AT MSCs = test: adipocyte induction of SSc AT MSCs ± CSD or scrambled peptide (IHC for ASMA and FABP4); assay type: cell-based, human; details: treatment during adipocyte induction
Experimental: MSCs from healthy and SSc donors were treated with adipocyte induction medium (AIM), from Lonza to induce adipogenesis.
(§1) Adipogenic differentiation was induced by incubating cells for 3 cycles of 3 days in Adipocyte Induction Medium (Lonza) plus 1 day in Maintenance Medium. Adipogenic differentiation was analyzed by IHC and/or Western blotting using appropriate antibodies and by staining with an Oil Red 0 kit (Biovision) according to the manufacturer's instructions.

bleomycin-treated mice [1] = test: bleomycin minipump mouse model, lung fibrosis (Ashcroft score, ASMA and HSP47 IHC); assay type: in vivo, C57BL/6 mice
Description: (§2) To create a mouse model for autologous MSC treatment, adipose-derived MSCs were isolated from C57/BL6 mice treated with bleomycin, expanded in vitro, then injected systemically via the retro-orbital sinus or subcutaneously into host C57/BL6 mice that had been treated with bleomycin.
(§3) The Pump Model (Lee R. et al., 2014, Am. J. Physio. Lung Cell. Mol. Physio. 306:L736-748) is used both to generate MSC donors and host mice receiving MSC therapy. Briefly; under isoflurane anesthesia, mini-osmotic pumps (ALZET 1007D; DURECT Corporation, Cupertino, Calif.) containing 100 μl of bleomycin (67 U/kg) or saline are implanted posterior to the scapulae of 8-10 week old C57BL/6 mice. Pumps deliver 0.5 μl/h for 7 days, then are removed by day 10 per the manufacturer's instructions.
Mice were treated with bleomycin or vehicle using osmotic minipumps (Lee et al., 2014, Am J Physiol Lung Cell Mol Physiol, 306:L736-L748). […] Tissue morphology was quantified by the Ashcroft Method (Ashcroft et al., 1988, J Clin Pathol, 41:467-70). […]
On day 24, under anesthesia the rib cage was opened, mice systemically perfused via the left ventricle with PBS, then further perfused with Z-Fix (Anatech). […] Lung tissue morphology was evaluated by the Ashcroft Method (Ashcroft T. et al., 1988, J. Clin. Pathol. 41:467-470). Skin tissue morphology was evaluated in terms of the thickness of the dermis and the subdermal adipose layer. […]

TGFβ-activated monocytes = test: monocyte migration toward SDF-1; assay type: cell-based, human
Experimental: Migration experiments were performed using TGFβ-activated monocytes and 100 ng/ml of the chemokine SDF-1 as chemoattractant (Tourkina et al., 2011, Fibrogenesis Tissue Repair, 4:15). Cells were treated with the indicated concentrations of the indicated peptides. Cells that had migrated were counted in six high power fields per filter. Migration is expressed in terms of “Inhibition of Migration”. Each experiment included Control monocytes and the same monocytes treated with TGFβ which enhanced their rate of migration approximately three-fold. […] Intermediate degrees of inhibition were quantified on a linear basis.
To study the structure-activity relationship of CSD to identify an optimal version to be developed for treating fibrotic diseases in human patients, subdomains of CSD were tested for their ability to inhibit the migration of human monocytes. Monocytes from healthy subjects were used which, when activated using TGFβ, migrate at an enhanced rate similar to monocytes from SSc patients (Tourkina et al., 2011, Fibrogenesis Tissue Repair, 4:15).

Healthy AT MSCs = test: ASMA staining (IHC) of Healthy AT MSCs treated with CSD, scrambled CSD and TGFβ; assay type: cell-based, human
Description: Human MSCs were derived from abdominal fat tissue. SSc ILD and SSc No ILD MSCs are a generous gift from Dr. Del Papa (Milan, Italy). Healthy human MSCs are from Dr. Del Papa and from Lonza. Human MSCs were maintained in the medium previously described (Capelli C. et al., 2017, Cell Transplant. 26:841-854). Early passage cells (passage 1 to 3) were used in all experiments except when late passage cells (passage 5) were specifically used in FIG. 1F.
To induce fibrogenic differentiation in healthy human and mouse MSCs, cells were incubated for 10 days in Maintenance Medium supplemented with TGFβ (10 ng/ml). To determine the effects of knocking down caveolin-1 expression, healthy MSCs were treated with siRNA targeting caveolin-1 according to the manufacturer's instructions (Dharmacon).

mice = mice receiving CSD treatment; cited from earlier work
[2] = test system: Healthy AT MSCs differentiated into adipocytes; test: Healthy AT MSCs already differentiated into adipocytes, then treated ± TGFβ ± CSD, Western blotting; assay type: cell-based, human
Experimental: To induce MSCs or adipocytes into a profibrotic phenotype, the cells were cultured in the presence of TGFβ.
as §1
MSC cultures were rinsed with PBS. Lysis Buffer (20 mM Tris-HCl (pH 7.5)/1% NP-40/100 mM NaCl/5 mM EDTA/2 mM KCl) supplemented with 1 mM phenylmethylsulfonyl fluoride, protease inhibitor mixture Set V (Calbiochem), and phosphatase inhibitors (10 mM sodium pyrophosphate, 5 mM NaF, 10 mM beta-glycerophosphate, and 10 mM sodium orthovanadate) was added to the plates, the cells scraped into the buffer, frozen, thawed, and the extract clarified by centrifugation (10 min, 12,000 rpm, RT). The protein content of the supernatants was determined, sample buffer added, and the samples were boiled. 5 to 40 μg of protein was loaded per lane depending on the avidity of the primary antibody to be used for detection.

bleomycin-treated mice [3] = test: bleomycin minipump mouse model, skin fibrosis (dermal thickness, FABP4 IHC); assay type: in vivo, C57BL/6 mice
Description: as §2
as §3, with “Pumps deliver 0.5 μl/h for 7 days, then are removed by day 10 per the manufacturer's instructions.” left out
On day 24, under anesthesia the rib cage was opened, mice systemically perfused via the left ventricle with PBS, then further perfused with Z-Fix (Anatech). […] Lung tissue morphology was evaluated by the Ashcroft Method (Ashcroft T. et al., 1988, J. Clin. Pathol. 41:467-470). Skin tissue morphology was evaluated in terms of the thickness of the dermis and the subdermal adipose layer. Tissue sections were also analyzed by IHC using routine methods (Lee R. et al., 2014, Am. J. Physio. Lung Cell. Mol. Physio. 306:L736-748; Lee R. et al., 2014, Frontiers in Pharma. 5:140; Lee R. et al., 2015, Fibrogen. Tissue Repair, 8:11) and appropriate antibodies.

[4] = TGFβ after adipocyte differentiation

| Compound | dose working in inhibiting fibrosis (animal model for ILD) | number of ASMA+ cells (SSc AT MSCs) | number of FABP4+ cells (SSc AT MSCs) | ASMA levels in the bleomycin-treated lung (bleomycin-treated mice [1]) | TGFβ-induced migration (TGFβ-activated monocytes; 50 pg/ml peptide) | inhibition of TGFβ-induced migration (TGFβ-activated monocytes; levels as low as 0.005 pg/ml) | enhanced ASMA expression in cells treated with TGFβ (Healthy AT MSCs; healthy MSCs + TGFβ) | baseline expression of ASMA (Healthy AT MSCs; healthy MSCs without TGFβ) | share of treated mice with beneficial effect on lung morphology (mice) | AKT activation [2, 4] | FABP4 expression [2, 4] | fibrogenic effect of TGFβ: increased ASMA expression [2, 4] | fibrogenic effect of TGFβ: increased Col I expression [2, 4] | p38 activation [2, 4] | PPARγ expression ([2]; differentiated adipocytes) | caveolin-1 expression ([2]; differentiated adipocytes) | effectiveness relative to pirfenidone in inhibiting fibrosis (animal model for ILD) | loss of the intradermal adipose layer (FABP4 staining) (bleomycin-treated mice [3]) |
| --- | --- | --- | --- | --- | --- | --- | --- | --- | --- | --- | --- | --- | --- | --- | --- | --- | --- | --- |
| Cc1ccc(=O)n(-c2ccccc2)c1 [pirfenidone, reference compound] | 300 mg/kg/day | – | – | – | – | – | – | – | – | – | – | – | – | – | – | – | – | – |
| DGIWKASFTTFTVTKYWFYR-NH2 [CSD, caveolin-1 scaffolding domain peptide, amino acids 82-101 of caveolin-1] | 1 mg/kg/day | decreased | increased | greatly decreased | decreased essentially to the uninduced level | Substantial inhibition | inhibited | inhibited | greater than 50% | restored | did not restore | reversed | reversed | inhibited | Neither TGFβ nor CSD affected | Neither TGFβ nor CSD affected | 300 fold | reversed |
